Assay [1] deals with T1, CK1δ (Homo sapiens, UniProt P48730).
T1 construct: gene CSNK1D
Nature of the assay: in vitro radiometric kinase assay ([…]-ATP, CK1 peptide substrate). It is filed as biochemical.

Assay [2] deals with T1, CK1δ. Nature of the assay: in vitro radiometric kinase assay ([…]-ATP, CK1 peptide substrate); CRBN-dependent CK1δ degradation in cells. It is filed as biochemical.

Drawing on PMC12655757, “Design and Synthesis of Novel Candidate CK1δ Proteolysis Targeting Chimeras (PROTACs)” (Molecules, 2025), this text covers IC50 for four molecules.

T1 sequence (P48730 whole entry): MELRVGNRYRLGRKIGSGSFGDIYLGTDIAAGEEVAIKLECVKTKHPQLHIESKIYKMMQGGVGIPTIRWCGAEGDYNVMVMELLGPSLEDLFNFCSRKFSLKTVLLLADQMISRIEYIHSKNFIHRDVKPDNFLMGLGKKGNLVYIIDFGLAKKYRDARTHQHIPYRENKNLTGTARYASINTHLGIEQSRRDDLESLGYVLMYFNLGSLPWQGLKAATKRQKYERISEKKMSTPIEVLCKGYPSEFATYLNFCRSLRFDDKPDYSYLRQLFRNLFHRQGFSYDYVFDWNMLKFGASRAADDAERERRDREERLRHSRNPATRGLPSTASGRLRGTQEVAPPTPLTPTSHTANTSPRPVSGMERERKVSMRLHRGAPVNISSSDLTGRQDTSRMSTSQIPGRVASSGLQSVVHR

As for `Nc1ccc(Cn2c(SCC(=O)Nc3nc4ccc(C(F)(F)F)cc4s3)nccc2=O)cc1` [I9], the IC50 against CK1δ [1] turned out to be 3430 nM.

`O=C1CCC(N2C(=O)c3cccc(NCCCCCC(=O)Nc4ccc(Cn5c(SCC(=O)Nc6nc7ccc(C(F)(F)F)cc7s6)nccc5=O)cc4)c3C2=O)C(=O)N1` (stereo not shown) [P1d]: at CK1δ [2], the concentration for half-maximal inhibition (IC50) was found to be 2160 nM.

For `O=C1CCC(N2C(=O)c3cccc(OCCCOCCC(=O)Nc4ccc(Cn5c(SCC(=O)Nc6nc7ccc(C(F)(F)F)cc7s6)nccc5=O)cc4)c3C2=O)C(=O)N1` (stereo not shown) [P3d], half-maximal inhibition against CK1δ [1] (IC50) was put at 1960 nM.

In the case of `O=C1CCC(N2C(=O)c3ccc(OCCCOCCC(=O)Nc4ccc(Cn5c(SCC(=O)Nc6nc7ccc(C(F)(F)F)cc7s6)nccc5=O)cc4)cc3C2=O)C(=O)N1` (stereo not shown) [P4d], the IC50 against CK1δ [1] was about 2200 nM.
